Common to all, as to format: cell-based
The target of assay [1] is T1, URAT1 (Homo sapiens, UniProt Q96S37).
T1 sequence (Q96S37 1-553): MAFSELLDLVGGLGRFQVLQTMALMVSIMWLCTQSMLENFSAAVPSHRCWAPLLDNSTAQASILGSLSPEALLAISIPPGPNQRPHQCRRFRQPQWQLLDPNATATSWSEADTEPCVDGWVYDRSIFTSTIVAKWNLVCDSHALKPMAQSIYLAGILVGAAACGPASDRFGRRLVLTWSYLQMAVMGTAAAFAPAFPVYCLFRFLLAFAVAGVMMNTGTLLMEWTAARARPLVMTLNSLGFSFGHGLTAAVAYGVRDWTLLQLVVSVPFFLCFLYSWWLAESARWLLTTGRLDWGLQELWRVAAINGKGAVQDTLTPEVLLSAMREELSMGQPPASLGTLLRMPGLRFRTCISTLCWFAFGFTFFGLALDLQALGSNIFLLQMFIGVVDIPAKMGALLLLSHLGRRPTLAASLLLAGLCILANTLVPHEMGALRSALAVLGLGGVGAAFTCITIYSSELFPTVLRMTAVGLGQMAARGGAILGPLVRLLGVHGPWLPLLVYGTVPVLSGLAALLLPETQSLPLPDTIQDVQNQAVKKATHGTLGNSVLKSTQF
Kind of assay: [14C]-urate uptake by URAT1-expressing Xenopus oocytes. The text has this:
(§1) For uptake experiments, oocytes were washed four times with ND96 medium (pH 7.4) without pyruvate and gentamycin.

In assay [2] the target is T2, OAT4 (Homo sapiens, UniProt Q9NSA0).
T2 sequence (Q9NSA0 1-550): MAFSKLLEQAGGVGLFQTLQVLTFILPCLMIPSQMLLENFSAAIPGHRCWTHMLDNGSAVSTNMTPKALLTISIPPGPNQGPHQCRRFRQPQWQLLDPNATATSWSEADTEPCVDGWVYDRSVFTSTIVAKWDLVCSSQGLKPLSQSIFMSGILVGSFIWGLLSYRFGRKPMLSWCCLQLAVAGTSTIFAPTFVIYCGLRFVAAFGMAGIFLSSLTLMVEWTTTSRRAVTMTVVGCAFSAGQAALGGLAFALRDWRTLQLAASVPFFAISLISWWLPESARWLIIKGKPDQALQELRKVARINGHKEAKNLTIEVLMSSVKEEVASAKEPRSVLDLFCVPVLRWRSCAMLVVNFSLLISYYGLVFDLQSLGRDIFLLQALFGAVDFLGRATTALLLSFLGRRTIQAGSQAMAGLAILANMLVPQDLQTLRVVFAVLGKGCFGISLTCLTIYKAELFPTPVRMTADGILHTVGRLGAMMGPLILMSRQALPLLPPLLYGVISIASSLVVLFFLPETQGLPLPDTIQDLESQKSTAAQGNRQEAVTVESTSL
In words: [14C]-urate uptake by OAT4-expressing Xenopus oocytes. The settings on record: for cis-inhibition of OAT4-mediated, maleate trans-stimulated urate uptake: 10 mM extracellular anion; for trans-stimulatory effect of preloaded anion on OAT4-mediated urate uptake: preinjected 50 nL of 100 mmol/L. The protocol:
as §1
(A) The uptake of [^14C]‐urate by OAT4‐expressing oocytes was performed in ND96 medium (pH 7.4) at ~25°C for 1 h. Na^+‐dependence was examined by replacing extracellular NaCl by KCl. […] (B) The inhibition of [^14C]‐urate uptake by OAT4 was examined in the presence of extracellular organic anions (for cis‐inhibition) or uricosuric drugs at the indicated concentrations. […] Data are mean ± S.E. with n = 12–15.

In assay [3] the target is T3, GLUT9a (Homo sapiens, UniProt Q9NRM0).
T3 sequence (Q9NRM0 1-540): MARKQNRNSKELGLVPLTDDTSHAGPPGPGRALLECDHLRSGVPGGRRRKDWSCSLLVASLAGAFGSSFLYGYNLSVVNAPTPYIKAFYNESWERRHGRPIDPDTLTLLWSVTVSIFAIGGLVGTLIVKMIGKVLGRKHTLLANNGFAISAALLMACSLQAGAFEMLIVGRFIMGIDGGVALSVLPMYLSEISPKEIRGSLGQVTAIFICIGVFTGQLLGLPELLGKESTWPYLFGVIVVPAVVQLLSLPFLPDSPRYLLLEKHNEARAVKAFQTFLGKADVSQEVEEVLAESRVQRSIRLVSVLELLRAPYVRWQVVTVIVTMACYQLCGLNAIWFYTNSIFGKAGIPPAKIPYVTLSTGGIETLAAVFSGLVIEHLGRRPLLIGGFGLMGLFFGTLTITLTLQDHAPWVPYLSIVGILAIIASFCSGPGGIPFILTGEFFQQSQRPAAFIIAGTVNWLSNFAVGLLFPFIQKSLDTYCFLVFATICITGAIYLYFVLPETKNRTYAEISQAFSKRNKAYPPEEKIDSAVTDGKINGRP
Kind of assay: [14C]-urate uptake by GLUT9a-expressing Xenopus oocytes.
Description: as §1
We sought to investigate the effect of tranilast on GLUT9a‐mediated [^14C]‐urate uptake in Xenopus laevis oocytes.

Assay [4] has as its target T4, OAT10 (Homo sapiens, UniProt Q9Y226). Kind of assay: [14C]-urate uptake by OAT10-expressing Xenopus oocytes. The settings on record: preloaded 50 nL of 100 mmol/L.
Description: as §1
(A) Time course of [^14C]‐urate uptake by control and […] oocytes. […] Inset, western blot analysis of OAT10 protein expressed in oocytes. […] (C) [^14C]‐urate transport properties of OAT10: voltage sensitivity and Na+‐dependence was examined by replacing extracellular NaCl by KCl or LiCl. Existence of urate/Cl^− exchange mechanism or Cl^− dependence or cis‐inhibitory effects of extracellular Cl^− on was verified by [^14C]‐urate uptake via OAT10 in the absence of extracellular Cl^− ion (0 Cl^−). In 0 Cl^− bath, NaCl was replaced by Na‐gluconate (Na‐Gluc), KCl by K‐gluconate (K‐Gluc), MgCl2 by Mg‐gluconate, and CaCl2 by Ca‐gluconate. […] Data are mean ± S.E. with n = 12–15.

The target of assay [5] is T1, URAT1. In words: [14C]-nicotinate uptake by URAT1-expressing Xenopus oocytes. The settings on record: for cis-inhibition of URAT1-mediated [14C]-nicotinate uptake by extracellular anion: data not shown.
Description: as §1
Data are mean ± S.E. with n = 12–15.

Assay [6] has as its target T4, OAT10. Kind of assay: [14C]-nicotinate uptake by OAT10-expressing Xenopus oocytes. The settings on record: preloaded with nonlabeled anion; ND96. The protocol:
as §1
Chloride ion‐dependence was also assessed; in 0 Cl^− bath, NaCl was replaced by Na‐gluconate (Na‐Gluc), KCl by K‐gluconate (K‐Gluc), MgCl2 by Mg‐gluconate, and CaCl2 by Ca‐gluconate. […] Data are mean ± S.E. with n = 12–15.

The target of assay [7] is T5, OAT3 (Mus musculus, UniProt O88909).
T5 sequence (O88909 1-537): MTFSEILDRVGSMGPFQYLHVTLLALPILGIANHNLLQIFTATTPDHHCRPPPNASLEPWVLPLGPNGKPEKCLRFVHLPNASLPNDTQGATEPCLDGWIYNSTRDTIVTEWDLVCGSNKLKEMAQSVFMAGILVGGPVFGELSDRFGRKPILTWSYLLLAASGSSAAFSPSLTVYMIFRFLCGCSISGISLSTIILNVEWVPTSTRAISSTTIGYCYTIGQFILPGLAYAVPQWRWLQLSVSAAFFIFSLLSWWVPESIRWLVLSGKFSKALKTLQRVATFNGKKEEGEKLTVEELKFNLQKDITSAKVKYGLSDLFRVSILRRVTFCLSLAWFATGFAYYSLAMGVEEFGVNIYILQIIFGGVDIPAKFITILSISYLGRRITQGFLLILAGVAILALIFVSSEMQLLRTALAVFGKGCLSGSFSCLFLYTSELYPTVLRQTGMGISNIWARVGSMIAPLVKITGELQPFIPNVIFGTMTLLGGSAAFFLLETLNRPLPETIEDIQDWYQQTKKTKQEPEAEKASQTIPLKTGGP
In words: [14C]-urate uptake by OAT3-expressing Xenopus oocytes. The protocol: as §1
The uptake of [^14C]‐urate (40 μmol/L) was performed in ND96 medium (pH 7.4) at ~25°C for 1 h.

Like-named read-outs stand apart in the source and are kept apart here.

T4 sequence (Q9Y226 whole entry): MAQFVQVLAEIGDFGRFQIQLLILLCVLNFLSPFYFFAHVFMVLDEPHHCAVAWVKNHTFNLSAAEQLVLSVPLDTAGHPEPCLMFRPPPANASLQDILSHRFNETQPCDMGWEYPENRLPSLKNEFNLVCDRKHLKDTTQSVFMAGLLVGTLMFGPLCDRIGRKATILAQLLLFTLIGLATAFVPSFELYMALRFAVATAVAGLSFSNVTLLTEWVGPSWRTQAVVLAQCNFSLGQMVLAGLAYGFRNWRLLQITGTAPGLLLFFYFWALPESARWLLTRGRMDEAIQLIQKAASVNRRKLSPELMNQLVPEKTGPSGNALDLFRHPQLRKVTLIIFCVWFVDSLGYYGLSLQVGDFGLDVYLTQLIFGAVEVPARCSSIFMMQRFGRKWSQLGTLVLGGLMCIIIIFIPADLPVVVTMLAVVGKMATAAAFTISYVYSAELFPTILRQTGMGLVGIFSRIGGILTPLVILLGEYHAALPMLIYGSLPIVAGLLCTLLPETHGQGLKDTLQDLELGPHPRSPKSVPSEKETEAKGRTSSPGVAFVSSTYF

As for `Nc1ccc(C(=O)NCC(=O)O)cc1` [PAH, para‐aminohippurate], the “trans-stimulatory effect of preloaded intracellular anion on URAT1-mediated urate uptake” value in assay [1] is given as “did not however detect any significant trans‐stimulatory effect”. Also, the “cis-inhibition of URAT1-mediated urate uptake by extracellular organic anion” value (“cis-inhibition … by extracellular organic anion” for short) in assay [1] (10 mM extracellular anion) was “not cis‐inhibited”.

For `CC(=O)C(=O)O` [pyruvate], the “cis-inhibition … by extracellular organic anion” value in assay [1] (10 mM extracellular anion) is recorded as “not cis‐inhibited”.

Consider `O=C(O)CC(O)(CC(=O)O)C(=O)O` [citrate], for which, in assay [1] (10 mM extracellular anion), the “cis-inhibition … by extracellular organic anion” value was “not cis‐inhibited”.

For the compound `O=C(O)/C=C\C(=O)O` [maleate], in assay [1] (10 mM extracellular anion), the “cis-inhibition … by extracellular organic anion” value was “not cis‐inhibited”. Further, in assay [2], the “cis-inhibition of OAT4-mediated, maleate trans-stimulated urate uptake” value is given as “efficiently cis‐inhibited” and the “trans-stimulatory effect of preloaded anion on OAT4-mediated urate uptake” value was “modest trans‐stimulatory effect”.

Take `O=C(O)C(=O)O` [oxalate]: in assay [1] (10 mM extracellular anion), the “cis-inhibition … by extracellular organic anion” value is “not cis‐inhibited”.

Take `O=C(O)c1cnccn1` [PZA, pyrazine carboxylate]: the “cis-inhibition … by extracellular organic anion” value in assay [1] (10 mM extracellular anion) was “cis‐inhibition”. The “URAT1 urate uptake after preloading with anion (trans-stimulation), fold over preloaded control oocytes” value in assay [1] (oocytes preloaded with nonlabeled anion) is listed as 70–75 fold. Besides, the “Effect of extracellular anion on GLUT9a activity” value in assay [3] (Fig. 2C) was “no effect”. Besides, the “trans-stimulatory effect of preloaded anion on OAT4-mediated urate uptake” value in assay [2] is given as “no significant effects”. For the same compound, the “trans-stimulatory effect of preloaded anion on OAT10-mediated urate uptake” value in assay [4] is listed as “modest trans‐stimulatory effect”. Moreover, in assay [5], the “cis-inhibition of URAT1-mediated [14C]-nicotinate uptake by extracellular anion” value is listed as “cis‐inhibited”. Moreover, the “URAT1 [14C]-nicotinate uptake after preloading (trans-stimulation), fold over water-injected control oocytes” value in assay [5] (preloaded anion) was 19–20 fold. Further, the “OAT10 [14C]-nicotinate uptake after preloading, fold over PZA-preloaded control oocytes” value in assay [6] is on record as 118–120 fold. The “cis-inhibition of OAT3-mediated urate uptake by extracellular anion” value in assay [7] (10 mmol/L extracellular anion) was “almost completely cis‐inhibited”. Also, the “Effect of preloaded intracellular anion on OAT3 [14C]-urate uptake (trans-stimulation)” value in assay [7] (preloaded anion) is on record as “did not have any effect”.

On to `CC(O)CC(=O)O` (stereo not drawn) [BHB, β‐hydroxy butyrate], for which the “trans-stimulatory effect of preloaded intracellular anion on URAT1-mediated urate uptake” value in assay [1] is reported as “did not however detect any significant trans‐stimulatory effect”. The “cis-inhibition … by extracellular organic anion” value in assay [1] (10 mM extracellular anion) is listed as “not cis‐inhibited”. Also, the “trans-stimulatory effect of preloaded anion on OAT10-mediated urate uptake” value in assay [4] is “modest trans‐stimulatory effect”.

Consider `O=C(O)CCC(=O)O` [succinate], for which the “cis-inhibition … by extracellular organic anion” value in assay [1] is on record as “not cis‐inhibited”. In assay [2], the “cis-inhibition of OAT4-mediated, maleate trans-stimulated urate uptake” value is recorded as “much less cis‐inhibition” and the “trans-stimulatory effect of preloaded anion on OAT4-mediated urate uptake” value is listed as “no significant effects”.

As to `O=C(O)c1ccccc1O` [salicylate], the “cis-inhibition … by extracellular organic anion” value in assay [1] is on record as “cis‐inhibition”. Also, the “Effect of extracellular anion on GLUT9a activity” value in assay [3] was “no effect”. For the same compound, in assay [5], the “cis-inhibition of URAT1-mediated [14C]-nicotinate uptake by extracellular anion” value was “cis‐inhibited”.

`O=c1[nH]c(=O)c2[nH]c(=O)[nH]c2[nH]1` [urate]: the “cis-inhibition of URAT1-mediated [14C]-nicotinate uptake by extracellular anion” value in assay [5] was “cis‐inhibited”.

Regarding `O=CO` [formate], the “cis-inhibition … by extracellular organic anion” value in assay [1] was “not cis‐inhibited”.

As to `CC(O)C(=O)O` (stereo not shown) [lactate], in assay [1], the “trans-stimulatory effect of preloaded intracellular anion on URAT1-mediated urate uptake” value is recorded as “did not however detect any significant trans‐stimulatory effect”. Moreover, the “cis-inhibition … by extracellular organic anion” value in assay [1] (10 mM extracellular anion) is recorded as “not cis‐inhibited”.
